Measured values: patent publication US20230278972A1, “SUBSTITUTED HALOALKYL SULFONANILIDE HERBICIDES” (FMC Corporation, priority 2020, published 2023)

How the values were obtained:
Type in all cases: in vivo
[1] = test system: Foxtail, Giant (giant foxtail, Setaria faberi); experiment: Test A1 preemergence, Foxtail, Giant
Outline: (§1)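 Seeds were first planted into a blend of loam soil and sand and given a preemergence directed soil spray. In parallel, pots of the same soil were sown for postemergence application once plants reached 2 to 10 cm and the one- to two-leaf stage. Both used surfactant-containing non-phytotoxic solvent formulations.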

[2] = test system: Oat, Wild (wild oat, Avena fatua); experiment: Test A1 preemergence, Oat, Wild
Outline: as §1

[3] = test system: ragweed (common ragweed, Ambrosia artemisiifolia); experiment: Test A1 preemergence, ragweed
Outline: as §1

[4] = test system: Foxtail, Giant (giant foxtail, Setaria faberi); experiment: Test A1 postemergence, Foxtail, Giant; details: Postemergence
Outline: (§2)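 Pre: seeds in loam/sand blend, directed soil spray. Post: potted plants, same soil, 2–10 cm, 1–2 leaf stage. Chemicals in non-phytotoxic solvent + surfactant for both.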

kochia (Bassia scoparia) = experiment: Test A1 postemergence, kochia; details: Postemergence
Outline: as §2

[5] = test system: Pigweed, Palmer (palmer amaranth, palmer pigweed, Amaranthus palmeri); experiment: Test A1 postemergence, Pigweed, Palmer; details: Postemergence
Outline: as §1

[6] = test system: wheat (Triticum aestivum); experiment: Test A1 postemergence, wheat; details: Postemergence
Outline: as §2

[7] = test system: barnyardgrass (Echinochloa crus-galli); experiment: Test B1 flooded paddy test, barnyardgrass; details: 250 g ai/ha, Flood, applied to paddy water, 2-leaf stage, visually evaluated after 10 to 14 days
Description: (§3) A dash (-) response means no test result.

rice (Oryza sativa) = experiment: Test B1 flooded paddy test, rice; details: 250 g ai/ha, Flood, applied to paddy water, 2-leaf stage, visually evaluated after 10 to 14 days
Description: as §3

[8] = 31 g ai/ha, 0 to 100 scale (0 no effect, 100 complete control)
[9] = 125 g ai/ha, 0 to 100 scale, 0 no effect, 100 complete control
[10] = 31 g ai/ha, 0 to 100 scale (0 no effect, 100 complete control), 10 days

Compound	Plant response rating, Foxtail, Giant [1, 8]	Plant response rating, Foxtail, Giant [1, 9]	Plant response rating, Oat, Wild [2, 8]	Plant response rating, Oat, Wild [2, 9]	Plant response rating, Ragweed [3, 8]	Plant response rating, Ragweed [3, 9]	Plant response rating, Foxtail, Giant [4, 10]	Plant response rating, Foxtail, Giant ([4]; 125 g ai/ha, 0 to 100 scale)	Plant response rating, Kochia (kochia (Bassia scoparia); [10])	Plant response rating, Kochia (kochia (Bassia scoparia); 125 g ai/ha, 0 to 100 scale)	Plant response rating, Pigweed, Palmer [5, 10]	Plant response rating, Pigweed, Palmer ([5]; 125 g ai/ha, 0 to 100 scale)	Plant response rating, Wheat [6, 10]	Plant response rating, Wheat ([6]; 125 g ai/ha, 0 to 100 scale)	Plant response rating, Barnyardgrass (0 to 100 scale, 0 is no effect, 100 is complete control) [7]	Plant response rating, Rice (0 to 100 scale, 0 is no effect, 100 is complete control) (rice (Oryza sativa))
CCC1ON=C(c2cc(N(COC(=O)C(C)(C)C)S(=O)(=O)C(F)(F)F)c(C)cc2C)C1CC (centres unmarked) [Compound 344]	30	100	0	10	0	0	10	30	20	60	20	50	40	70	95	40
CCC1ON=C(c2cc(N(C(=O)OCC(C)C)S(=O)(=O)C(F)(F)F)c(C)cc2C)C1CC (centres unmarked) [Compound 345]	40	100	20	10	0	0	30	50	30	80	40	60	30	60	95	25
CCC1ON=C(c2cc(N(COC(=O)C(C)(C)C)S(=O)(=O)C(F)(F)F)c(C)cc2C)C1CC (centres unmarked) [Compound 347]	0	60	0	0	0	0	20	30	10	60	20	50	0	40	95	25
Cc1cc(C)c(C2=NOC3OCCC23)cc1NS(=O)(=O)C(F)(F)F (centres unmarked) [Compound 349]	90	100	10	50	30	90	30	90	70	80	20	70	30	70	90	45
Cc1cc(C)c(N(COC(=O)C(C)(C)C)S(=O)(=O)C(F)(F)F)cc1C(=O)N1CCC(F)(F)CC1 [Compound 350]	0	80	0	10	20	80	10	30	0	60	30	40	0	10	90	35
CCOC(=O)N(c1cc(C(=O)N2CCC(F)(F)CC2)c(C)cc1C)S(=O)(=O)C(F)(F)F [Compound 351]	30	100	10	30	50	90	30	50	10	30	10	20	0	60	90	50
Cc1cc(C)c(N(COC(=O)C(C)(C)C)S(=O)(=O)C(F)(F)F)cc1C1=NOC2OCCC12 (centres unmarked) [Compound 352]	30	100	0	20	60	90	20	70	50	70	20	60	0	50	90	35
CCOC(=O)N(c1cc(C(=O)N2CCC(C)CC2)c(C)cc1C)S(=O)(=O)C(F)(F)F [Compound 354]	80	100	0	0	20	50	0	70	40	50	0	10	20	40	90	15
Cc1c(NS(=O)(=O)C(F)(F)F)cc(C(=O)N2CCC(Cl)CC2)c(C)c1C [Compound 356]	90	100	0	20	0	0	10	40	10	50	0	10	0	30	45	0
Cc1c(NS(=O)(=O)C(F)(F)F)cc(C(=O)N2CCC(F)(F)CC2)c(C)c1C [Compound 357]	10	90	0	0	0	80	0	20	0	30	0	50	0	0	45	10
Cc1c(NS(=O)(=O)C(F)(F)F)cc(C(=O)N2CCC(F)CC2)c(C)c1C [Compound 358]	80	100	0	10	40	80	0	40	0	70	0	40	0	0	50	10
